# Laboratory results as given in patent US10829730B2, “Microdevice platform recapitulating hypoxic tissue microenvironments” (UNIVERSITY OF SOUTHERN CALIFORNIA, priority 2017, dated 2020).
# Entries after “also recorded” stand apart in the source; their conditions may differ.
# Experiments:
# [1] = system: MCF-7 human breast cancer cells; assay: Hypoxia-activated drug assay: live-dead staining (calcein-AM / propidium iodide) of micropatterned cells, normoxic or in hypoxia microdevice; type: cell-based; settings: 50 μM TPZ; for live-cell fraction (areal fraction of positive calcein staining), inside versus outside the 1.5 mm radius: N=3, one-way ANOVA; for cytotoxicity indicated by positive nuclear propidium iodide (PI) staining: 24 hours after 12 hours pre-conditioning
# Method: To assess the response of cancer cells to drug treatment under a hypoxic gradient, as well as the feasibility of the microdevice for drug screening assays, cell viability assays with TPZ treatment in the microdevice were performed. […] Cells were pre-conditioned with hypoxia in the microdevice for 12 hours, which was considered sufficient to induce cellular adaptations to hypoxia^47, before being treated with TPZ for 24 hours. […] As dead cells can be washed off in the staining process, the areal fraction of living cells with positive calcein staining was chosen as the readout for TPZ cytotoxicity. The live-cell fractions in the micropatterns inside and outside the 1.5 mm radius were quantified, which corresponds to the pillar radius.
# MCF-7 human breast cancer cells were purchased from ATCC and maintained in […] (DMEM; Thermo Fisher) supplemented with 10% fetal bovine serum (FBS; Omega Scientific), 100 U mL^−1 penicillin, and 100 μg mL^−1 streptomycin (Thermo Fisher), in a humidified incubator maintained at 37° C. and 5% CO2. Round glass coverslips (12 mm in diameter; Fisher Scientific) were immersed in hot commercial detergent, rinsed with deionized water, and dried with air. The coverslips were then treated with plasma (Harrick Plasma, Model PDC-001-HP) and silanized with 1% aminopropyltriathoxysilane (Fisher Scientific) for 15 minutes. Upon extensive rinsing, coverslips were dried with air and cured at 100° C. for 1 hour. Next, silanized coverslips were coated with 0.1 mg mL^−1 rat tail collagen type I (Corning) in 4° C. for 3 hours under shaking conditions. Micropattern designs were modeled in CorelDrawX7 (Corel Corporation) and fabricated into 250 μm thick PDMS stencils (Rogers Corporation) by a laser engraver (Epilog). Stencil design was a circular feature of 5 mm diameter cut into a 13 mm circle. Stencils were then thoroughly rinsed in 70% isopropanol and deionized water, air-dried, and aligned onto the collagen-coated coverslips. The whole substrate was blocked with 0.2% w/v pluronic F-127 (Sigma) diluted in 1×PBS, rinsed with PBS, then with DMEM. Next, 300,000 MCF-7 human breast cancer cells (ATCC) were seeded. After cells adhered, PDMS stencils were peeled off and the glass coverslips with micropatterned cancer cells were briefly rinsed^41.
# Micropatterned cells were pre-conditioned in normoxic conditions (no microdevice) or hypoxic conditions (microdevice) for 12 hours. Next, media was replaced with 50 μM TPZ (Sigma Aldrich), a hypoxia-activated anticancer prodrug, for 24 hours. Cells were rinsed with fresh media and stained for calcein-AM (Sigma Aldrich) and propidium iodide (PI) (Thermo Fisher Scientific) for 30 minutes at room temperature. Cell survival was quantified by the fraction of cells expressing positive calcein signal.
# For the drug assay, the fraction of calcein positive cells (live cells) within (corresponding to hypoxia-induced cells under the pillar) and outside (corresponding to near-normoxic cells outside the pillar) the 1.5 mm radius was quantified. The fraction of PI positive cells (dead cells) was also quantified. The respective fractions were plotted against micropattern radii, similarly to previous image analyses. All data are plotted using Prism (GraphPad Software, Inc.).
# [2] = system: hypoxic human cancer cells; settings: hypoxic vs normoxic human cancer cells; cited from earlier work
structure (smiles),measurement,setting,value
"Nc1n[n+]([O-])c2ccccc2[n+]1[O-] [TPZ, tirapazamine]","live-cell fraction (areal fraction of positive calcein staining), inside versus outside the 1.5 mm radius","[1]; hypoxia microdevice, 24 hours",significant reduction
same,cytotoxicity indicated by positive nuclear propidium iodide (PI) staining,"[1]; hypoxic samples (microdevice), MCF-7",cytotoxicity caused by TPZ
same,fate of cells under severe hypoxia near the pillar center (live-dead staining),"[1]; microdevice, ≤0.03 mol/m^3 oxygen level by COMSOL simulation, 24 hours, MCF-7",eliminated; also recorded: death zone
same,"live-cell fraction (areal fraction of positive calcein staining), inside versus outside the 1.5 mm radius","[1]; normoxic condition (no microdevice), 24 hours",not statistically different
same,cytotoxicity indicated by positive nuclear propidium iodide (PI) staining,"[1]; normoxic samples (no microdevice), MCF-7",cytotoxicity caused by TPZ; also recorded: TPZ-induced cytotoxicity
same,selectivity at targeting hypoxic human cancer cells versus their normoxic counterparts,[2],15- to 50 fold
